In patent US20220009920A1 (GB005, Inc., priority 2020, published 2022):

How the values were obtained:
Assay in all cases: Large panel kinase profiling
Format in all cases: biochemical
Conditions in all cases: 1 μM test article, 1 mM ATP
RPS6KA3/RSK2 = target: T1, RPS6KA3/RSK2 (Homo sapiens, UniProt P51812)
T1 construct: AssayQuant Technologies, Inc. (contract assay)
How it was run: (§1)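 Single-point profiling at 1 μM test article used 1 mM ATP. Phosphorylation was tracked by sensor fluorescence increase over time at 30° C., with readings each minute at excitation 360 nm and emission 485 nm.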

PRKAA1/AMPK111 = PRKAA1/AMPK111 (Homo sapiens, UniProt Q13131)
How it was run: as §1

PRKACB = PRKACB (Homo sapiens, UniProt P22694)
How it was run: as §1

MAP4K2/GCK = target: T2, MAP4K2/GCK (Homo sapiens, UniProt Q12851)
T2 construct: AssayQuant Technologies, Inc. (service provider)
T2 sequence (Q12851 1-820): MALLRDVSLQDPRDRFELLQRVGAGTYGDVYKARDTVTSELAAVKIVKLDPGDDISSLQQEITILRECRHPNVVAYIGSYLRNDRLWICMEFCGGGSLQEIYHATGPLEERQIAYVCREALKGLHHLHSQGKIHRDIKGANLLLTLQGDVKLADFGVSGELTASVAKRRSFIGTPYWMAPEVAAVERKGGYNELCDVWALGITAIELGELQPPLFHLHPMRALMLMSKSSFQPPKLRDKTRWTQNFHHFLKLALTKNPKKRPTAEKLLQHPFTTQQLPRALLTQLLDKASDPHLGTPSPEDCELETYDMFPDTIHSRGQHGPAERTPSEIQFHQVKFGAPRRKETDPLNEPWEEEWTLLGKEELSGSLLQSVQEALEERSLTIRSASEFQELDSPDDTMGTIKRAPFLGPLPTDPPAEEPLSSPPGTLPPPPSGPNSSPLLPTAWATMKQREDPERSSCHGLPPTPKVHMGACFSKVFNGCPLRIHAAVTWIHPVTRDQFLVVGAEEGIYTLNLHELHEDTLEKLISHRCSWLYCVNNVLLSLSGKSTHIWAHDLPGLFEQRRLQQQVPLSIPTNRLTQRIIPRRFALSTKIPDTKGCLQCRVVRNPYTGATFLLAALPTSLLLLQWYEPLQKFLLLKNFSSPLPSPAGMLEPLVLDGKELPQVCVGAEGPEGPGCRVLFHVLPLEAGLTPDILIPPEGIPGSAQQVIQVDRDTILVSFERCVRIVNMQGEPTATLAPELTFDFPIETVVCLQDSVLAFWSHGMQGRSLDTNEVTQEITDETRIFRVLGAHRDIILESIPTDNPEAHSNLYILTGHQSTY
How it was run: as §1

TYRO3 = target: T3, TYRO3 (Homo sapiens, UniProt Q06418)
T3 construct: AssayQuant Technologies, Inc. (contract laboratory that ran the panel)
T3 sequence (Q06418 41-890): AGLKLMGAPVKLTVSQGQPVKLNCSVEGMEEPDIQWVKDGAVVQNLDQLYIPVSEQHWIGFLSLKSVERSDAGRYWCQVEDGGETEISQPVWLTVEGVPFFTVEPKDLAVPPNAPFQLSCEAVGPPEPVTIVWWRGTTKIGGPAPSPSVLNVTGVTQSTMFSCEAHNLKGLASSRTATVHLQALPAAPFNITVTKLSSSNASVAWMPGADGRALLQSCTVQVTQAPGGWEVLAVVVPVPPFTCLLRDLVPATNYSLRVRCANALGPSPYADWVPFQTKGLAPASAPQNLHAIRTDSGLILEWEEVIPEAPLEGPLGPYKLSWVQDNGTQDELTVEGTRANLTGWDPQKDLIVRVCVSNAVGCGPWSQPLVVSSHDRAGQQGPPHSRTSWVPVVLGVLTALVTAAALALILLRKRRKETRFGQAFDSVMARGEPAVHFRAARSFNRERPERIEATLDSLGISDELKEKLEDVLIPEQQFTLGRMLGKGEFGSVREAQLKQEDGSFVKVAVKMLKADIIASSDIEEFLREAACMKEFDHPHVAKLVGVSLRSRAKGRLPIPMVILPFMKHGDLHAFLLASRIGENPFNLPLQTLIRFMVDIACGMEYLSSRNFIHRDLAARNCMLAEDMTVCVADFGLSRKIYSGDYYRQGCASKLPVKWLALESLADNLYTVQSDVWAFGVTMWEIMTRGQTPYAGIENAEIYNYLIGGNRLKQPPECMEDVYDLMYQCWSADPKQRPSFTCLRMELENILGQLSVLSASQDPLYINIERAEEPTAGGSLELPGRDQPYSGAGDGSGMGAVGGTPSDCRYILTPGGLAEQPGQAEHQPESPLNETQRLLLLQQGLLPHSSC
How it was run: as §1

PRKCG/PKCG = PRKCG/PKCG (Homo sapiens, UniProt P05129)
How it was run: as §1

ERN2 = ERN2 (Homo sapiens, UniProt Q76MJ5)
How it was run: as §1

TSSK1 = target: T4, TSSK1 (Homo sapiens, UniProt Q9BXA7)
T4 construct: AssayQuant Technologies, Inc. (contract laboratory that ran the panel)
T4 sequence (Q9BXA7 1-367): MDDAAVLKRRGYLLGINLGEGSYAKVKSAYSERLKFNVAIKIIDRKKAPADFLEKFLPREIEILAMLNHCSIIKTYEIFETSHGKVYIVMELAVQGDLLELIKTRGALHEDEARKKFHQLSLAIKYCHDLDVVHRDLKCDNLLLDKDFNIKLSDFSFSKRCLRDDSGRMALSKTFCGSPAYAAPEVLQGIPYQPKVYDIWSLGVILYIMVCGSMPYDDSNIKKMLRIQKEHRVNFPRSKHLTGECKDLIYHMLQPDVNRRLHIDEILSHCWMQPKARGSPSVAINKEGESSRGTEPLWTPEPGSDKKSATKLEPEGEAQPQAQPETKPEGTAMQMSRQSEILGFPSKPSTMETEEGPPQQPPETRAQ
How it was run: as §1

LRRK2 = LRRK2 (Homo sapiens, UniProt Q5S007)
How it was run: as §1

T1 sequence (P51812 whole entry): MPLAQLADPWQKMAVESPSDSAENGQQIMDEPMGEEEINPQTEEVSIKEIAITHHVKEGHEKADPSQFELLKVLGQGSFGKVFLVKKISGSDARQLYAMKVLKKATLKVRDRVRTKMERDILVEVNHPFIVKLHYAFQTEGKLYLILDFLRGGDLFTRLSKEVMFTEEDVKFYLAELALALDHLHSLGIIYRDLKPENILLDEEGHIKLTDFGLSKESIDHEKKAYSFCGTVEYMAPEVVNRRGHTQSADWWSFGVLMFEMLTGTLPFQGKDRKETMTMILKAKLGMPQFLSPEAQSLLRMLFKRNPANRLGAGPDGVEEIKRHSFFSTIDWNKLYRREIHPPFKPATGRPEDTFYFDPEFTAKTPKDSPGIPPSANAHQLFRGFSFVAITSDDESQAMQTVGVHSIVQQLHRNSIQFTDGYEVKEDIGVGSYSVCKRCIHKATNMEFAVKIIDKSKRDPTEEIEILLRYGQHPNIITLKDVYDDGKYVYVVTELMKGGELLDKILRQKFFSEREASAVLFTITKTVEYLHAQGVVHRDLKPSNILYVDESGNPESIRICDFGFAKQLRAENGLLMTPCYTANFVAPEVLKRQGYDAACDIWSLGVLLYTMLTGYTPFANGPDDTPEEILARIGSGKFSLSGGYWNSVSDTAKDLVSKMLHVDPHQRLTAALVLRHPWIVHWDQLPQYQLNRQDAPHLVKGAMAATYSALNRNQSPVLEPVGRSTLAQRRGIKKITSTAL
Chain of ERN2 (Q76MJ5 35-926, species assumed): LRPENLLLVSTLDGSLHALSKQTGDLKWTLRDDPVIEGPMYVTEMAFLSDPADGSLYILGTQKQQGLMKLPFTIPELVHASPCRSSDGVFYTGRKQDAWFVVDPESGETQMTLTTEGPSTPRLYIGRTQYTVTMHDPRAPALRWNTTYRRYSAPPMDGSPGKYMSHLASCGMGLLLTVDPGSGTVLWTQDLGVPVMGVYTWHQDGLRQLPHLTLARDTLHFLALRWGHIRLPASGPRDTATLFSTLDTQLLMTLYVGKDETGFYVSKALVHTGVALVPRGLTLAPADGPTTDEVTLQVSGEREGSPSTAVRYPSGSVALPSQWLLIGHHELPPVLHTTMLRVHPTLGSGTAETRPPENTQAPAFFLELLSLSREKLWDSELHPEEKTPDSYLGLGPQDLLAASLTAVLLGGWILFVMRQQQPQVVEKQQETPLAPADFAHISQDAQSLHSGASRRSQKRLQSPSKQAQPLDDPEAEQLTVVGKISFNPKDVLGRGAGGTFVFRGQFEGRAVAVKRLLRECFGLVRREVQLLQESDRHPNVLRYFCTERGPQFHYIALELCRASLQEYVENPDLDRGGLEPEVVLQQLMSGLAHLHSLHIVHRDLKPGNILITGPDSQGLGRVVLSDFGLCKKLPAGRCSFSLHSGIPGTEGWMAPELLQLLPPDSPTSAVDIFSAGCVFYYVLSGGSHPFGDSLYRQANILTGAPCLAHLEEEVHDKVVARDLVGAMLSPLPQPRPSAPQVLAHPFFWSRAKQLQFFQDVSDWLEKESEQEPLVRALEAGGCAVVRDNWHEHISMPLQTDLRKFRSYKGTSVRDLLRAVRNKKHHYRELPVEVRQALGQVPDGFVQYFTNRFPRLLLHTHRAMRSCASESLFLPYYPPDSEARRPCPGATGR
Chain of PRKAA1/AMPK111 (Q13131 whole entry, species assumed): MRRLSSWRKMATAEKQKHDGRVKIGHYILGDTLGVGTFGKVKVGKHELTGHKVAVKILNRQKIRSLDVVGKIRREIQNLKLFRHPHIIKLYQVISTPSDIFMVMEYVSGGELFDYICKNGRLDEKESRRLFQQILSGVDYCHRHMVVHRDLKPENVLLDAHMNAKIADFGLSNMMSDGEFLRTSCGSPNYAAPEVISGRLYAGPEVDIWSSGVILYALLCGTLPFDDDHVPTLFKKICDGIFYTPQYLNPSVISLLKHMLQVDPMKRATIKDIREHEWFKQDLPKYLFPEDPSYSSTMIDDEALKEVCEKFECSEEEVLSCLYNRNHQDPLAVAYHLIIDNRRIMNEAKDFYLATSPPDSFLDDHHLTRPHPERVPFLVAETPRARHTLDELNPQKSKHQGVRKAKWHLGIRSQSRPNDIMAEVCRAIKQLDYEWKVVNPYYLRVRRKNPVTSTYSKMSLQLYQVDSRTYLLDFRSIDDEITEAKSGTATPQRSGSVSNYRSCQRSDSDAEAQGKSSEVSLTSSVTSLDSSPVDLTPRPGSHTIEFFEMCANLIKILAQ
Chain of PRKAA1/AMPK111 (Q9Y478 whole entry partner, species assumed): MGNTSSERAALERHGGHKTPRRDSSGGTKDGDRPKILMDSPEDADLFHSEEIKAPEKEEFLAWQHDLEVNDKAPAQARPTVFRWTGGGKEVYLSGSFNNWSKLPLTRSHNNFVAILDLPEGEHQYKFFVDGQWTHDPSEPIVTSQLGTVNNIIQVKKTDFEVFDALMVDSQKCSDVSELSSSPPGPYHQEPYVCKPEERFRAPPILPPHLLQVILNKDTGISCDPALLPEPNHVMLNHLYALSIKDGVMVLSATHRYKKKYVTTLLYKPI
Chain of PRKAA1/AMPK111 (P54619 whole entry partner, species assumed): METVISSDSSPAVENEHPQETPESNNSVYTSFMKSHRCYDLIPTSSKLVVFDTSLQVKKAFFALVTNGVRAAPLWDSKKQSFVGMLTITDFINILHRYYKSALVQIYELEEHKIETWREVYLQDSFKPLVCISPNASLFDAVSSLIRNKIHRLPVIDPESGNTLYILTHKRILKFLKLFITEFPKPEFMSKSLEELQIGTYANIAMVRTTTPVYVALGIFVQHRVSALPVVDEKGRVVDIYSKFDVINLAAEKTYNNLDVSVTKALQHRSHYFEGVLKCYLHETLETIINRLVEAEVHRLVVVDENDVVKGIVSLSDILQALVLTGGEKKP

Compound | inhibition at 1 µM (RPS6KA3/RSK2) [%] | inhibition at 1 µM (PRKAA1/AMPK111) [%] | inhibition at 1 µM (PRKACB) [%] | inhibition at 1 µM (MAP4K2/GCK) [%] | inhibition at 1 µM (TYRO3) [%] | inhibition at 1 µM (PRKCG/PKCG) [%] | inhibition at 1 µM (ERN2) [%] | inhibition at 1 µM (TSSK1) [%] | inhibition at 1 µM (LRRK2) [%]
C=CC(=O)N1CCCC(c2c(F)cc(C(N)=O)c3[nH]c4c(c23)CCCCC4)C1 (single isomer, unassigned) [Compound 5-6] | 5.8 | -13.5 | 10.6 | -46.6 | 2.4 | -7.3 | -8 | 7.3 | -8.9
C=CC(=O)N1CCC[C@@H](c2c(F)cc(C(N)=O)c3[nH]c4c(c23)CC2(CC4)CC2)C1 [Compound 6-2, (S)-5-(1-acryloylpiperidin-3-yl)-6-fluoro-1,2,4,9-tetrahydrospiro[carbazole-3,1′-cyclopropane]-8-carboxamide] | -34.6 | 13.2 | 13.2 | -1.3 | 14.7 | 8.6 | -14.6 | -3 | -2.7
C=CC(=O)N1CCC[C@@H](c2c(F)cc(C(N)=O)c3[nH]c4c(c23)CCC4)C1 [Compound 10-2, (S)-8-(1-acryloylpiperidin-3-yl)-7-fluoro-1,2,3,4-tetrahydrocyclo-penta[b]indole-5-carboxamide] | -27.7 | 2.2 | 1.6 | -1.3 | 10.1 | 1.3 | -7.1 | 14 | -7.2
